US7034036B2, “Inhibitors of ABC drug transporters at the blood-brain barrier” (Pain Therapeutics, Inc., priority 2000, dated 2006)
“Also recorded” adds a separate entry of the source.

Tests used:
PGP1a = assay: Vanadate-sensitive PGP ATPase activity in PGP membranes; type: biochemical
Procedure: The test substances were incubated in the membranes and supplemented with MgATP, with and without sodium orthovanadate present. Orthovanadate inhibits PGP by trapping MgADP in the nucleotide binding site. Thus, the ATPase activity measured in the presence of orthovanadate represents non-PGP ATPase activity and was subtracted from the activity generated without orthovanadate to yield vanadate-sensitive ATPase activity.
ATPase assays were conducted in 96-well microtiter plates. A 0.06 ml reaction mixture containing 40 μg PGP membranes, test substance, and 4 mM MgATP, in buffer containing 50 mM Tris-MES, 2 mM EGTA, 50 mM KCl, 2 mM dithiothreitol, and 5 mM sodium azide, plus organic solvent was incubated at 37° C. for 20 minutes. […] Identical reaction mixtures containing 100 μM sodium orthovanadate were assayed in parallel. The reactions were stopped by the addition of 30 μl of 10% SDS+Antifoam A. The incubations were followed with addition of 200 μl of 35 mM Ammonium Molybdate in 15 mM Zinc Acetate:10% Ascorbic Acid (1:4) and incubated for an additional 20 minutes at 37° C. Additionally, 0.06 ml aliquots of potassium phosphate standards prepared in the buffer described above, were incubated in the plates containing the test and control substances, with SDS and detection reagent added. The liberation of inorganic phosphate was detected by its absorbance at 800 nm and quantitated by comparing the absorbance to a phosphate standard curve. The concentration dependence of the PGP was analyzed for evidence of saturation of PGP-ATPase activity, and apparent kinetic parameters were calculated by non-linear regression.

mice [1] = assay: Tail flick anti-nociception, naltrexone begun at day 6 in mice dosed daily with morphine (Groups A, B); type: in vivo; conditions: morphine 3 mg/kg daily
Procedure: 40 male mice were randomized into 5 groups of eight. All mice were administered single 3 mg/kg morphine daily (b.i.d.), beginning on Day 1.
In a second series of experiments, 40 female mice were randomized into 5 groups of eight. All mice were administered single 3 mg/kg morphine daily (b.i.d.), beginning on Day 1.
3 mg/kg of morphine was administered as a single bolus dose to each mouse on group 1 on a daily basis. Mice in Group 2 were also administered 3 mg/kg morphine daily.

mice [2] = assay: Tail flick anti-nociception, naltrexone given with morphine from day 1 (Groups C, D, combined analysis); type: in vivo; parameters: Enhancement of Latency (tail flick) / Enhancement of Latency by Naltrexone (tail flick): unit not given here
Procedure: In a third series of experiments, 40 male mice were randomized into 5 groups of eight. All mice were administered single 3 mg/kg morphine daily (b.i.d.), beginning on Day 1.
In a final series of experiments, 40 female mice were randomized into 5 groups of eight. All mice were administered single 3 mg/kg morphine daily (b.i.d.), beginning on Day 1.

Structure (SMILES): O=C1CC[C@@]2(O)[C@H]3Cc4ccc(O)c5c4[C@@]2(CCN3CC2CC2)[C@H]1O5 [Naltrexone, naltrexone]
- Vanadate-sensitive ATPase Activity (PGP1a; 100 μM): 4.6 nmol/mg/min
- Inhibition of the ATPase associated with PGP1a (PGP1a; semi-quantitative assay): shown to inhibit
- Naltrexone effect on tail flick latency (mice [1]; female mice, naltrexone 3-3000 ng/kg b.i.d. from day 6, Days 6, 8, 10): significantly different from zero in enhancing latency
- Effect on morphine tolerance (mice [1]; morphine-tolerant mice, naltrexone 3 ng/kg daily from Day 6): broke the tolerance; also recorded: breaks tolerance
- Enhancement of Latency by Naltrexone (tail flick) (mice [2]; Table 15, combined analysis (title prints Female Mice), Group 2: morphine 3 mg/kg + naltrexone 3 ng/kg b.i.d., Day 1): 12.8
- Enhancement of Latency by Naltrexone (tail flick) (mice [2]; Table 15, combined analysis (title prints Female Mice), Group 2: morphine 3 mg/kg + naltrexone 3 ng/kg b.i.d., Day 3): 9.3
- Enhancement of Latency by Naltrexone (tail flick) (mice [2]; Table 15, combined analysis (title prints Female Mice), Group 2: morphine 3 mg/kg + naltrexone 3 ng/kg b.i.d., Day 5): 5.9
- Enhancement of Latency by Naltrexone (tail flick) (mice [2]; Table 15, combined analysis (title prints Female Mice), Group 2: morphine 3 mg/kg + naltrexone 3 ng/kg b.i.d., Day 8): 5.8
- Enhancement of Latency by Naltrexone (tail flick) (mice [2]; Table 15, combined analysis (title prints Female Mice), Group 2: morphine 3 mg/kg + naltrexone 3 ng/kg b.i.d., Day 10): 3.5
- Enhancement of Latency by Naltrexone (tail flick) (mice [2]; Table 15, combined analysis (title prints Female Mice), Group 3: morphine 3 mg/kg + naltrexone 30 ng/kg b.i.d., Day 1): 12.4
- Enhancement of Latency by Naltrexone (tail flick) (mice [2]; Table 15, combined analysis (title prints Female Mice), Group 3: morphine 3 mg/kg + naltrexone 30 ng/kg b.i.d., Day 3): 10.0
- Enhancement of Latency by Naltrexone (tail flick) (mice [2]; Table 15, combined analysis (title prints Female Mice), Group 3: morphine 3 mg/kg + naltrexone 30 ng/kg b.i.d., Day 5): 7.2
- Enhancement of Latency by Naltrexone (tail flick) (mice [2]; Table 15, combined analysis (title prints Female Mice), Group 3: morphine 3 mg/kg + naltrexone 30 ng/kg b.i.d., Day 8): 4.9
- Enhancement of Latency by Naltrexone (tail flick) (mice [2]; Table 15, combined analysis (title prints Female Mice), Group 3: morphine 3 mg/kg + naltrexone 30 ng/kg b.i.d., Day 10): 6.6
- Enhancement of Latency by Naltrexone (tail flick) (mice [2]; Table 15, combined analysis (title prints Female Mice), Group 4: morphine 3 mg/kg + naltrexone 300 ng/kg b.i.d., Day 1): 15.6
- Enhancement of Latency by Naltrexone (tail flick) (mice [2]; Table 15, combined analysis (title prints Female Mice), Group 4: morphine 3 mg/kg + naltrexone 300 ng/kg b.i.d., Day 3): 12.7
- Enhancement of Latency by Naltrexone (tail flick) (mice [2]; Table 15, combined analysis (title prints Female Mice), Group 4: morphine 3 mg/kg + naltrexone 300 ng/kg b.i.d., Day 5): 6.8
- Enhancement of Latency by Naltrexone (tail flick) (mice [2]; Table 15, combined analysis (title prints Female Mice), Group 4: morphine 3 mg/kg + naltrexone 300 ng/kg b.i.d., Day 8): 4.8
- Enhancement of Latency by Naltrexone (tail flick) (mice [2]; Table 15, combined analysis (title prints Female Mice), Group 4: morphine 3 mg/kg + naltrexone 300 ng/kg b.i.d., Day 10): 6.0
- Enhancement of Latency by Naltrexone (tail flick) (mice [2]; Table 15, combined analysis (title prints Female Mice), Group 5: morphine 3 mg/kg + naltrexone 3000 ng/kg b.i.d., Day 1): 12.9
- Enhancement of Latency by Naltrexone (tail flick) (mice [2]; Table 15, combined analysis (title prints Female Mice), Group 5: morphine 3 mg/kg + naltrexone 3000 ng/kg b.i.d., Day 3): 11.3
- Enhancement of Latency by Naltrexone (tail flick) (mice [2]; Table 15, combined analysis (title prints Female Mice), Group 5: morphine 3 mg/kg + naltrexone 3000 ng/kg b.i.d., Day 5): 7.7
- Enhancement of Latency by Naltrexone (tail flick) (mice [2]; Table 15, combined analysis (title prints Female Mice), Group 5: morphine 3 mg/kg + naltrexone 3000 ng/kg b.i.d., Day 8): 6.2
- Enhancement of Latency by Naltrexone (tail flick) (mice [2]; Table 15, combined analysis (title prints Female Mice), Group 5: morphine 3 mg/kg + naltrexone 3000 ng/kg b.i.d., Day 10): 7.0
- Enhancement of Latency by Naltrexone (tail flick) (mice [2]; female mice, Group 2: morphine 3 mg/kg + naltrexone 3 ng/kg b.i.d. from day 1, Day 1): 12.2
- Enhancement of Latency by Naltrexone (tail flick) (mice [2]; female mice, Group 2: morphine 3 mg/kg + naltrexone 3 ng/kg b.i.d. from day 1, Day 3): 11.0
- Enhancement of Latency by Naltrexone (tail flick) (mice [2]; female mice, Group 2: morphine 3 mg/kg + naltrexone 3 ng/kg b.i.d. from day 1, Day 5): 4.3
- Enhancement of Latency by Naltrexone (tail flick) (mice [2]; female mice, Group 2: morphine 3 mg/kg + naltrexone 3 ng/kg b.i.d. from day 1, Day 7): 6.1
- Enhancement of Latency by Naltrexone (tail flick) (mice [2]; female mice, Group 2: morphine 3 mg/kg + naltrexone 3 ng/kg b.i.d. from day 1, Day 10): 4.4
- Enhancement of Latency by Naltrexone (tail flick) (mice [2]; female mice, Group 2: morphine 3 mg/kg + naltrexone 3 ng/kg b.i.d. from day 1, Day 11, single bolus 10 μg/kg naltrexone in addition): −1.0
- Enhancement of Latency by Naltrexone (tail flick) (mice [2]; female mice, Group 3: morphine 3 mg/kg + naltrexone 30 ng/kg b.i.d. from day 1, Day 1): 12.4
- Enhancement of Latency by Naltrexone (tail flick) (mice [2]; female mice, Group 3: morphine 3 mg/kg + naltrexone 30 ng/kg b.i.d. from day 1, Day 3): 10.7
- Enhancement of Latency by Naltrexone (tail flick) (mice [2]; female mice, Group 3: morphine 3 mg/kg + naltrexone 30 ng/kg b.i.d. from day 1, Day 5): 6.9
- Enhancement of Latency by Naltrexone (tail flick) (mice [2]; female mice, Group 3: morphine 3 mg/kg + naltrexone 30 ng/kg b.i.d. from day 1, Day 7): 2.4
- Enhancement of Latency by Naltrexone (tail flick) (mice [2]; female mice, Group 3: morphine 3 mg/kg + naltrexone 30 ng/kg b.i.d. from day 1, Day 10): 9.3
- Enhancement of Latency by Naltrexone (tail flick) (mice [2]; female mice, Group 3: morphine 3 mg/kg + naltrexone 30 ng/kg b.i.d. from day 1, Day 11, single bolus 10 μg/kg naltrexone in addition): −0.7
- Enhancement of Latency by Naltrexone (tail flick) (mice [2]; female mice, Group 4: morphine 3 mg/kg + naltrexone 300 ng/kg b.i.d. from day 1, Day 1): 15.0
- Enhancement of Latency by Naltrexone (tail flick) (mice [2]; female mice, Group 4: morphine 3 mg/kg + naltrexone 300 ng/kg b.i.d. from day 1, Day 3): 10.3
- Enhancement of Latency by Naltrexone (tail flick) (mice [2]; female mice, Group 4: morphine 3 mg/kg + naltrexone 300 ng/kg b.i.d. from day 1, Day 5): 1.9
